Test results as given in ChEMBL document CHEMBL1142754, “Lp-PLA2 inhibitory activities of fatty acid glycerols isolated from Saururus chinensis roots” (Bioorg Med Chem Lett, 2005).

Experiment: Inhibitory concentration against lipoprotein-associated phospholipase A2 (Lp-PLA2) was determined in Pseudomonas fluorescens (DMS 115797)

Row | IC50 | Compound
1 | 52 µM | CCCCC/C=C\C/C=C\CCCCCCCC(=O)OC[C@H](O)CO
2 | 4.5 µM | CCCCC/C=C\C/C=C\CCCCCCCC(=O)OC[C@@H](O)CO [GLYCERYL MONOLINOLEATE]
